The values below come from a melting point compilation (Tetko et al.; mined from patent text by program, amines drawn as free bases though some values may be those of a salt).

The melting point is the temperature, or range, at which the solid turns liquid.

Each structure is given as a SMILES string. Bounds are passed on as bounds.

For the compound `CCOC(=O)C(Cc1ccccc1)NC(=O)COc1ccc(C2=NNC(=O)NC2)cc1Cl` (stereo not given), the melting point lay in the range of 180 to 181 °C.
As for `CCOCc1nc2c(N)nc3ccccc3c2n1CCCCCS(=O)(=O)N(C)C`, the figure is 138 to 142 °C.
Compound `CC(=O)CCC(=O)N1CCN(c2c(F)cc(N3CC(CNC(C)=O)OC3=O)cc2F)CC1` (stereo not given) showed a melting point of 52 to 56 °C.
As for `NS(=O)(=O)c1ccc(-c2cc(-c3nc(-c4ccc(C(F)(F)F)nc4)cc(C(F)F)n3)ccn2)s1`, the figure is 270 °C; as for `CNc1nc(Nc2ccc(CNC(=O)OC(C)(C)C)cc2)ncc1[N+](=O)[O-]`, 260 °C; as for `COc1c(-c2ccccc2C)c(=O)[nH]c2ccccc12`, 208 to 210 °C.
The value for `CCOC(=O)C(=CNc1ccc(OCC)nc1)C(=O)OCC` was 68 to 71 °C.
For `CC(=O)OCC1OC(OC2C(COC(C)=O)OC(OCCBr)C(OC(C)=O)C2OC(C)=O)C(OC(C)=O)C(OC(C)=O)C1OC(C)=O` (stereo not given), the melting point lay within 151 to 152 °C.
The compound `CCNc1nc(SC)ncc1CNc1c(F)c(OC)cc(OC)c1F` returned a melting point of 95 to 99 °C.
As for `COC(=O)N[C@H](C(=O)N[C@@H](Cc1ccccc1)[C@@H](O)CN(Cc1ccc(-c2cncs2)cc1)NC(=O)[C@@H](NC(=O)OC)C(C)(C)C)C(C)C`, the figure is 114 to 115 °C; as for `CCCCCCCCCCCCCCCCCNC(=O)N(C)CC(O)C(O)C(O)C(O)CO` (stereo not given), 94 to 96 °C.
The value for `COc1cc(N(Cc2cccnc2)c2ccc(C(=O)O)cc2)ccc1OC(F)F` was 184 to 185 °C; that for `COc1ccc(Oc2nc(Nc3cccc(C(=O)O)c3)nc(Oc3ccccc3)n2)cc1` was 233 to 236 °C.
As for `CCOC(=O)c1cc(CC)sc1Nc1ccc([N+](=O)[O-])cc1[N+](=O)[O-]`, the melting point is 146 to 148 °C.
The value for `COC(=O)c1cc(C(=O)NCCN2CCOCC2)cc(-n2cccc2)c1` was 144 to 146 °C; that for `O=C(Nc1ccc(C(=O)N2Cc3cccnc3Nc3ccccc32)c(Cl)c1)c1ccccc1-c1ccccc1` was 147 to 165 °C.
Turning to `Cc1ccc(C)c(Nc2ncc(C(=O)O)c(=O)[nH]2)c1`, the melting point was 242 to 244 °C.
As for `COC(=O)CCS(=O)(=O)c1cc(C(C)(C)C)c(O)c(C(C)(C)C)c1`, the figure is 109 to 111 °C; as for `CCC1C=C2NC(=O)CC[C@]2(C)[C@H]2CC[C@]3(C)[C@@H]([C@H](C)CCCC(C)C)CC[C@H]3[C@H]12` (stereo not given in full), 147 to 149 °C.
As for `O=S1(=O)N=CN(C2CC2)c2cc(Br)cc(F)c21`, the figure is 285 to 287 °C.
The value for `CCOC(=O)c1cn(C2COC2)c2c(OC)c(F)c(F)cc2c1=O` was 195 to 198 °C; that for `CCOC(=O)c1cn(-c2cnnn2C)c2nc(Cl)c(F)cc2c1=O` was 251 °C.
As for `CC(C)N1CCN(CCN2CCN(c3noc4cc(F)ccc34)CC2)C1=O`, the melting point fell in the range of 125 to 127 °C.
In the case of `O=c1[nH]c2cc(Cl)ccc2c(=O)c(-c2ccccc2)c1O`, the melting point lay in the range of 193 to 196 °C.
As to `O=C1c2ccccc2C(=O)N1CC(=O)N1c2ccccc2N(Cc2cccc([N+](=O)[O-])c2)C(=O)[C@H]2CCC[C@H]21` (relative stereo), the melting point was 250 to 252 °C.
As for `CC(C)(C)c1cc(-c2nn(Cc3ccccc3)c3ncccc23)cc(C(C)(C)C)c1O`, the figure is 155 to 157 °C.
Compound `CCN(CC)CC1CCCN(CCNC(=O)N2c3ccccc3C(=O)Nc3cccnc32)C1` (stereo not given) showed a melting point of 184 to 185 °C.
The value for `Cc1cc(C(=O)N(C)C)ccc1-c1ccc(C(=O)Nc2ccc(Br)c(N3CCN(C)CC3)c2)cc1` was 227 to 228 °C; that for `Cc1nnc(-c2ccnc(Nc3ccc(S(C)(=O)=O)cc3)c2)o1` was 244 to 245 °C.
In turn, `CC1(C)OC(c2ccc(S(C)(=O)=O)c(F)c2)=C(c2ccc(N)cc2)C1=O` came in with a melting point of 199 to 200 °C.
Compound `Cc1nc2ccccn2c1-c1csc(Nc2ccc(C(=O)NO)cc2)n1` registered a melting point of 188 °C.
In turn, `N#Cc1cccc(CSc2nnc(-c3ccn4ncnc4c3)o2)c1` came in with a melting point of 196 to 197 °C.
In turn, `Cc1cn(C(C)C(N)=O)nc1-c1ccccc1` (stereo not given) came in with a melting point of 99 to 101 °C.
Compound `C[C@@H](C(=O)OC(C)(C)C)N(Cc1ccccc1)S(=O)(=O)c1ccc2c(Cl)cnc(Cl)c2c1` registered a melting point of 92 to 96 °C.
The value for `c1ccc(OCCSCc2nnc(-c3ccc(OCCCCN4CCSCC4)cc3)o2)cc1` was 58 °C.
The value for `CC(CCc1ccccc1)NC(CO)C(O)c1ccc(S(C)(=O)=O)cc1` (stereo not given) was 120 to 122 °C; that for `COC(=O)C(=O)c1ccc(OCCSc2ccccc2)cc1` was 49 to 51 °C.
With `Cc1cc(OCCCCOc2ccc([N+](=O)[O-])c(C)c2)ccc1[N+](=O)[O-]`, the melting point fell in the range of 108 to 110 °C.
The value for `CCCc1cc(C(O)(CC)CC)ccc1-c1cc(OCc2ccc(CO)c(CO)c2)ccc1CC` was 101 °C; that for `COC(=O)C1=C(C)NC(N)=C(C(=O)OC(C)C)C1c1ccccc1[N+](=O)[O-]` (stereo not given) was 203 °C; that for `O=C1c2nc[nH]c2N(Cc2ccccc2)C2=NCCN12` was 262 to 264 °C.
Take `Cc1ccc(C(=S)CC2CCCN(C)C2)cc1` (stereo not given): the melting point is 61.5 to 62.5 °C.
As for `CC(C)(C)NCCNC(=O)Cn1ncc(-c2ccccc2)c1-c1ccccc1`, the figure is 115 to 116 °C.
`Cn1cc(-c2ccc(Cl)cc2)c(=S)c(-c2cccc(C(F)(F)F)c2)c1` had a melting point of 239 to 242 °C.
The value for `COC(=O)c1n[nH]c2cc(C(F)(F)F)ccc12` was 240 to 242 °C; that for `CCN(CC)c1ccc2nc(C)c(C#N)c(O)c2c1` was greater than 250 °C.
The value for `CCOC(C)n1c(CCc2cccc(O)c2)nc(-c2ccccc2)c1-c1ccccc1` (stereo not given) was 166 to 167 °C; that for `CCCCc1nnc(SCC2CCCCC2)n1Cc1ccc(-c2ccccc2-c2nnn[nH]2)cc1` was 89 to 91 °C.
Regarding `CCOC(=O)c1ccc(NCCCCCCCCCCC[Si](C)(C)C)cc1`, the melting point was 66 to 68 °C.
As for `Cc1cc([N+](=O)[O-])cc(C)c1Cl`, the figure is 101 to 105 °C.
The value for `CC(C)(C)OC(=O)c1ccc(OCCCCl)cc1` was 57.5 to 58.5 °C; that for `FC(F)(F)C1(c2ccccc2)c2ccccc2Oc2ccccc21` was 89 to 90 °C.
In turn, `COC(=O)c1ccc2nc(-n3ccnc3)nc(NCCOCCO)c2c1` had a melting point of 233 to 235 °C.
In the case of `CCOC(=O)c1c[nH]nc1-c1ccc(Cl)cc1`, the melting point is 95 to 100 °C.
As for `CC(C)(O)CN(c1ccc(F)cc1)[C@H]1c2cc(C#N)ccc2OC(C)(C)[C@@H]1O`, the figure is 70 °C; as for `Cc1nc2c(-c3ccc(N4CCN(C)CC4)cc3)cnn2c(N)c1-c1cccc(Cl)c1`, 113 to 115 °C.
In turn, `CCCC(CCC)n1c(CC)nc2c1C(=O)N(C)C(C)N2c1ccc(Cl)cc1Cl` (stereo not given) yielded a melting point of 144 to 146 °C.
As for `Cc1oc(-c2ccccc2)nc1COc1ccc(CCc2oc(-c3ccccc3)nc2CC#N)cc1`, the figure is 97 to 98 °C; as for `COC(=O)c1ccc(C(=O)Nc2ccc(C)c(Nc3nc(-c4cccnc4)cs3)c2)cc1`, 195 °C.
`Cn1ccc2c3c(c(I)cc21)C(=O)NC3=O` displayed a melting point of 322 to 325 °C.
